# From ChEMBL document CHEMBL3885881, “DrugMatrix”
# Organism: Rattus norvegicus
# Assay: DrugMatrix - Regimen: Daily Repeat
# Format: toxicity, organism-based, Sprague-Dawley
# Set-up: regimen Daily Repeat, gender Male, age 6-8 weeks
# Conditions: in vivo, po, route oral GAVAGE, vehicle 100 % WATER; for ABSOLUTE BASOPHIL / ABSOLUTE EOSINOPHIL / ABSOLUTE LYMPHOCYTE / ABSOLUTE MONOCYTE / ABSOLUTE SEGMENTED NEUTROPHIL / BASOPHIL / EOSINOPHIL / ERYTHROCYTE COUNT / HEMATOCRIT / HEMOGLOBIN / LEUKOCYTE COUNT / LYMPHOCYTE / MEAN CORPUSCULAR HEMOGLOBIN / MEAN CORPUSCULAR HEMOGLOBIN CONCENTRATION / MEAN CORPUSCULAR VOLUME / MONOCYTE / NEUTROPHIL / NUCLEATED RED BLOOD CELLS / PLATELET COUNT: tissue Blood; for ALANINE AMINOTRANSFERASE / ALBUMIN / ALKALINE PHOSPHATASE / ASPARTATE AMINOTRANSFERASE / BLOOD UREA NITROGEN / CARBON DIOXIDE / CHLORIDE / CHOLESTEROL / CREATINE PHOSPHOKINASE / CREATININE / GLUCOSE / LACTATE DEHYDROGENASE / LIPASE / PHOSPHORUS / POTASSIUM / SODIUM / TOTAL BILIRUBIN / TOTAL PROTEIN / URIC ACID: tissue Plasma
# [1] = 63 mg/kg, 120 h, dose level High, time 5 day
# [2] = […], 72 h, dose 6.3 mg/Kg, dose level Low, time 3 day
# [3] = […], 120 h, dose 6.3 mg/Kg, dose level Low, time 5 day
smiles,measurement,setting,value
CNCCC=C1c2ccccc2CCc2ccccc21 [NORTRIPTYLINE],ABSOLUTE BASOPHIL,[1],0 CELLS/uL
same,ABSOLUTE EOSINOPHIL,[1],0 CELLS/uL
same,ABSOLUTE LYMPHOCYTE,[1],11759 CELLS/uL
same,ABSOLUTE MONOCYTE,[1],53.67 CELLS/uL
same,ABSOLUTE SEGMENTED NEUTROPHIL,[1],987.33 CELLS/uL
same,BASOPHIL,[1],0%
same,EOSINOPHIL,[1],0%
same,ERYTHROCYTE COUNT,[1],5.77 x10E6/uL
same,HEMATOCRIT,[1],35.97%
same,HEMOGLOBIN,[1],14.67 G/DL
same,LEUKOCYTE COUNT,[1],12.8 x10E3/uL
same,LYMPHOCYTE,[1],91.67%
same,MEAN CORPUSCULAR HEMOGLOBIN,[1],25.43 pg
same,MEAN CORPUSCULAR HEMOGLOBIN CONCENTRATION,[1],40.77 G/DL
same,MEAN CORPUSCULAR VOLUME,[1],62.33 fL
same,MONOCYTE,[1],0.33%
same,NEUTROPHIL,[1],8%
same,NUCLEATED RED BLOOD CELLS,[1],0 /100WBC
same,PLATELET COUNT,[1],1245.67 x10E3/uL
same,ALANINE AMINOTRANSFERASE,[1],45.67 u/L
same,ALBUMIN,[1],4.27 G/DL
same,ALKALINE PHOSPHATASE,[1],460.33 u/L
same,ASPARTATE AMINOTRANSFERASE,[1],77.33 u/L
same,BLOOD UREA NITROGEN,[1],16.33 mg/dL
same,CARBON DIOXIDE,[1],29 mmol/L
same,CHLORIDE,[1],101.33 MEQ/L
same,CHOLESTEROL,[1],78 mg/dL
same,CREATINE PHOSPHOKINASE,[1],346.33 u/L
same,CREATININE,[1],0.24 mg/dL
same,GLUCOSE,[1],205 mg/dL
same,LACTATE DEHYDROGENASE,[1],142 u/L
same,LIPASE,[1],9.67 u/L
same,PHOSPHORUS,[1],11.23 mg/dL
same,POTASSIUM,[1],4.99 MEQ/L
same,SODIUM,[1],144.43 MEQ/L
same,TOTAL BILIRUBIN,[1],0.17 mg/dL
same,TOTAL PROTEIN,[1],6.07 G/DL
same,URIC ACID,[1],1.6 mg/dL
same,ABSOLUTE BASOPHIL,[2],0 CELLS/uL
same,ABSOLUTE EOSINOPHIL,[2],47.67 CELLS/uL
same,ABSOLUTE LYMPHOCYTE,[2],13905.67 CELLS/uL
same,ABSOLUTE MONOCYTE,[2],0 CELLS/uL
same,ABSOLUTE SEGMENTED NEUTROPHIL,[2],1246.67 CELLS/uL
same,BASOPHIL,[2],0%
same,EOSINOPHIL,[2],0.33%
same,ERYTHROCYTE COUNT,[2],5.4 x10E6/uL
same,HEMATOCRIT,[2],34.5%
same,HEMOGLOBIN,[2],13.8 G/DL
same,LEUKOCYTE COUNT,[2],15.2 x10E3/uL
same,LYMPHOCYTE,[2],90.67%
same,MEAN CORPUSCULAR HEMOGLOBIN,[2],25.57 pg
same,MEAN CORPUSCULAR HEMOGLOBIN CONCENTRATION,[2],39.97 G/DL
same,MEAN CORPUSCULAR VOLUME,[2],63.87 fL
same,MONOCYTE,[2],0%
same,NEUTROPHIL,[2],9%
same,NUCLEATED RED BLOOD CELLS,[2],0.33 /100WBC
same,PLATELET COUNT,[2],1291.33 x10E3/uL
same,ALANINE AMINOTRANSFERASE,[2],51.33 u/L
same,ALBUMIN,[2],3.87 G/DL
same,ALKALINE PHOSPHATASE,[2],385.33 u/L
same,ASPARTATE AMINOTRANSFERASE,[2],86.33 u/L
same,BLOOD UREA NITROGEN,[2],14.33 mg/dL
same,CARBON DIOXIDE,[2],34 mmol/L
same,CHLORIDE,[2],99.33 MEQ/L
same,CHOLESTEROL,[2],71.33 mg/dL
same,CREATINE PHOSPHOKINASE,[2],248 u/L
same,CREATININE,[2],0.17 mg/dL
same,GLUCOSE,[2],136.67 mg/dL
same,LACTATE DEHYDROGENASE,[2],250.33 u/L
same,LIPASE,[2],10 u/L
same,PHOSPHORUS,[2],11.47 mg/dL
same,POTASSIUM,[2],6.49 MEQ/L
same,SODIUM,[2],143 MEQ/L
same,TOTAL BILIRUBIN,[2],0.23 mg/dL
same,TOTAL PROTEIN,[2],5.9 G/DL
same,URIC ACID,[2],1.23 mg/dL
same,ABSOLUTE BASOPHIL,[3],0 CELLS/uL
same,ABSOLUTE EOSINOPHIL,[3],0 CELLS/uL
same,ABSOLUTE LYMPHOCYTE,[3],14550 CELLS/uL
same,ABSOLUTE MONOCYTE,[3],394 CELLS/uL
same,ABSOLUTE SEGMENTED NEUTROPHIL,[3],2022.67 CELLS/uL
same,BASOPHIL,[3],0%
same,EOSINOPHIL,[3],0%
same,ERYTHROCYTE COUNT,[3],5.68 x10E6/uL
same,HEMATOCRIT,[3],35.47%
same,HEMOGLOBIN,[3],14.63 G/DL
same,LEUKOCYTE COUNT,[3],16.97 x10E3/uL
same,LYMPHOCYTE,[3],85.67%
same,MEAN CORPUSCULAR HEMOGLOBIN,[3],25.87 pg
same,MEAN CORPUSCULAR HEMOGLOBIN CONCENTRATION,[3],41.2 G/DL
same,MEAN CORPUSCULAR VOLUME,[3],62.7 fL
same,MONOCYTE,[3],2.33%
same,NEUTROPHIL,[3],12%
same,NUCLEATED RED BLOOD CELLS,[3],0 /100WBC
same,PLATELET COUNT,[3],1314.33 x10E3/uL
same,ALANINE AMINOTRANSFERASE,[3],49.33 u/L
same,ALBUMIN,[3],4.63 G/DL
same,ALKALINE PHOSPHATASE,[3],430.67 u/L
same,ASPARTATE AMINOTRANSFERASE,[3],87.33 u/L
same,BLOOD UREA NITROGEN,[3],23 mg/dL
same,CARBON DIOXIDE,[3],28 mmol/L
same,CHLORIDE,[3],98.33 MEQ/L
same,CHOLESTEROL,[3],70.33 mg/dL
same,CREATINE PHOSPHOKINASE,[3],246 u/L
same,CREATININE,[3],0.24 mg/dL
same,GLUCOSE,[3],143.33 mg/dL
same,LACTATE DEHYDROGENASE,[3],121 u/L
same,LIPASE,[3],11 u/L
same,PHOSPHORUS,[3],12.13 mg/dL
same,POTASSIUM,[3],7.2 MEQ/L
same,SODIUM,[3],141.23 MEQ/L
same,TOTAL BILIRUBIN,[3],0.27 mg/dL
same,TOTAL PROTEIN,[3],6.6 G/DL
same,URIC ACID,[3],2.13 mg/dL
